# In patent US11931431B2, “PSMA-targeted radiopharmaceutical for diagnosing and treating prostate cancer” (FUTURECHEM CO., LTD, priority 2018, dated 2024):
# Entries after “also recorded” stand apart in the source; their conditions may differ.
# Columns and labels:
# PSMA^+ PC-3 PIP tumors [1] = assay: MicroPET/CT imaging of mice transplanted with prostate cancer cell lines; assay type: in vivo, nude mouse
# Description: A tumor model was prepared by subcutaneously injecting PSMA^+ PC-3 PIP cells (a human prostate cancer cell line) to the right side of the nude mouse hind leg. Each of the ^68Ga-labeled compounds [^68Ga]1e, [^68Ga]1g, [^68Ga]1h and [^68Ga]1k was intravenously injected with 5.5 to 6.5 MBq (148-175 μCi/200 μL), and PET/CT images were obtained using small animal INVEON PET/CT (Siemens medical solutions, Knoxville, USA) for 60 minutes. After 150 minutes, 270 minutes, and 390 minutes, PET/CT images were also obtained for 30 minutes. The obtained PET/CT image results were quantitatively analyzed using Inveon™ Research Workplace (IRW).
# FIGS. 1, 2, 3, and 4 are graphs showing the quantitative analysis results of MicorPET/CT images for [^68Ga]1e, [^68Ga]1g, [^68Ga]1h, and [^68Ga]1k in % injected dose (ID)/g, and summarized in Tables 3, 4, 5, and 6, respectively.
# PSMA^+ PC-3 PIP tumors [2] = assay: Biodistribution test with mice transplanted with prostate cancer cell lines (gamma counter); assay type: in vivo, nude mouse; settings: 5 hours after injection, gamma counter
# Description: After 270 minutes of [^68Ga]1e and [^68Ga]1g injection, microPET/CT images were obtained for 30 minutes, and then each organ (blood, muscle, fat, heart, lung, liver, spleen, stomach, intestine, kidney, bone and tumor) was extracted and the radioactivity thereof was measured using a gamma counter.
# [3] = Measurement of lipophilicity (log P), n-octanol/PBS; assay type: physicochemical; settings: mean of 3
# Description: Each of the [^68Ga]1 compounds (1˜2 mci) synthesized in Example 14 was transferred into a vial, and the solvent was removed, to which 1 mL of n-octanol and 1 mL of PBS were added, and the lid was well closed, followed by mixing with a vortex for 1 minute. After the layers were separated, 0.1 mL was taken from each layer and the radiation dose was measured. The radiation dose was measured by repeating 3 times, and the mean value was obtained.
smiles,measurement,setting,value
O=C(O)CCC(NC(=O)NC(CCCCN(CC(=O)O)C(=O)COCCOCCNC(=O)CN1CCN2CCN3CCN(CC1)CC(=O)[O][68Ga]([O]C(=O)C2)[O]C(=O)C3)C(=O)O)C(=O)O (stereo not drawn) [[^68Ga]1e],intake of mouse organ: Bladder,PSMA^+ PC-3 PIP tumors [1]; 10 min after injection,19.37 ± 0.32 % ID/g
same,intake of mouse organ: Kidney,PSMA^+ PC-3 PIP tumors [1]; 10 min after injection,21.37 ± 9.18 % ID/g
same,intake of mouse organ: Liver,PSMA^+ PC-3 PIP tumors [1]; 10 min after injection,4.76 ± 0.42 % ID/g
same,intake of mouse organ: Muscle,PSMA^+ PC-3 PIP tumors [1]; 10 min after injection,1.46 ± 0.14 % ID/g
same,intake of mouse organ: Tumor (PIP),PSMA^+ PC-3 PIP tumors [1]; 10 min after injection,2.33 ± 0.36 % ID/g
same,intake of mouse organ: Bladder,PSMA^+ PC-3 PIP tumors [1]; 20 min after injection,47.31 ± 7.34 % ID/g
same,intake of mouse organ: Kidney,PSMA^+ PC-3 PIP tumors [1]; 20 min after injection,10.96 ± 4.32 % ID/g
same,intake of mouse organ: Liver,PSMA^+ PC-3 PIP tumors [1]; 20 min after injection,1.96 ± 0.22 % ID/g
same,intake of mouse organ: Muscle,PSMA^+ PC-3 PIP tumors [1]; 20 min after injection,1.38 ± 0.11 % ID/g
same,intake of mouse organ: Tumor (PIP),PSMA^+ PC-3 PIP tumors [1]; 20 min after injection,3.64 ± 0.49 % ID/g
same,intake of mouse organ: Bladder,PSMA^+ PC-3 PIP tumors [1]; 30 min after injection,55.82 ± 12.46 % ID/g
same,intake of mouse organ: Kidney,PSMA^+ PC-3 PIP tumors [1]; 30 min after injection,10.88 ± 7.09 % ID/g
same,intake of mouse organ: Liver,PSMA^+ PC-3 PIP tumors [1]; 30 min after injection,1.29 ± 0.05 % ID/g
same,intake of mouse organ: Muscle,PSMA^+ PC-3 PIP tumors [1]; 30 min after injection,0.95 ± 0.13 % ID/g
same,intake of mouse organ: Tumor (PIP),PSMA^+ PC-3 PIP tumors [1]; 30 min after injection,4.08 ± 0.60 % ID/g
same,intake of mouse organ: Bladder,PSMA^+ PC-3 PIP tumors [1]; 40 min after injection,60.63 ± 15.48 % ID/g
same,intake of mouse organ: Kidney,PSMA^+ PC-3 PIP tumors [1]; 40 min after injection,14.92 ± 13.57 % ID/g
same,intake of mouse organ: Liver,PSMA^+ PC-3 PIP tumors [1]; 40 min after injection,1.00 ± 0.03 % ID/g
same,intake of mouse organ: Muscle,PSMA^+ PC-3 PIP tumors [1]; 40 min after injection,0.61 ± 0.05 % ID/g
same,intake of mouse organ: Tumor (PIP),PSMA^+ PC-3 PIP tumors [1]; 40 min after injection,4.44 ± 0.48 % ID/g
same,intake of mouse organ: Bladder,PSMA^+ PC-3 PIP tumors [1]; 50 min after injection,64.24 ± 12.76 % ID/g
same,intake of mouse organ: Kidney,PSMA^+ PC-3 PIP tumors [1]; 50 min after injection,15.84 ± 15.60 % ID/g
same,intake of mouse organ: Liver,PSMA^+ PC-3 PIP tumors [1]; 50 min after injection,0.80 ± 0.02 % ID/g
same,intake of mouse organ: Muscle,PSMA^+ PC-3 PIP tumors [1]; 50 min after injection,0.53 ± 0.05 % ID/g
same,intake of mouse organ: Tumor (PIP),PSMA^+ PC-3 PIP tumors [1]; 50 min after injection,4.56 ± 1.03 % ID/g
same,intake of mouse organ: Bladder,PSMA^+ PC-3 PIP tumors [1]; 60 min after injection,67.80 ± 8.56 % ID/g
same,intake of mouse organ: Kidney,PSMA^+ PC-3 PIP tumors [1]; 60 min after injection,15.72 ± 16.29 % ID/g
same,intake of mouse organ: Liver,PSMA^+ PC-3 PIP tumors [1]; 60 min after injection,0.65 ± 0.04 % ID/g
same,intake of mouse organ: Muscle,PSMA^+ PC-3 PIP tumors [1]; 60 min after injection,0.35 ± 0.05 % ID/g
same,intake of mouse organ: Tumor (PIP),PSMA^+ PC-3 PIP tumors [1]; 60 min after injection,4.73 ± 0.98 % ID/g
same,intake of mouse organ: Bladder,PSMA^+ PC-3 PIP tumors [1]; 150 min after injection,31.85 ± 35.57 % ID/g
same,intake of mouse organ: Kidney,PSMA^+ PC-3 PIP tumors [1]; 150 min after injection,0.70 ± 0.02 % ID/g
same,intake of mouse organ: Liver,PSMA^+ PC-3 PIP tumors [1]; 150 min after injection,0.06 ± 0.01 % ID/g
same,intake of mouse organ: Muscle,PSMA^+ PC-3 PIP tumors [1]; 150 min after injection,0.02 ± 0.01 % ID/g
same,intake of mouse organ: Tumor (PIP),PSMA^+ PC-3 PIP tumors [1]; 150 min after injection,4.20 ± 0.42 % ID/g
same,intake of mouse organ: Bladder,PSMA^+ PC-3 PIP tumors [1]; 270 min after injection,1.45 ± 1.62 % ID/g
same,intake of mouse organ: Kidney,PSMA^+ PC-3 PIP tumors [1]; 270 min after injection,0.41 ± 0.16 % ID/g
same,intake of mouse organ: Liver,PSMA^+ PC-3 PIP tumors [1]; 270 min after injection,0.03 ± 0.01 % ID/g
same,intake of mouse organ: Muscle,PSMA^+ PC-3 PIP tumors [1]; 270 min after injection,0.01 ± 0.01 % ID/g
same,intake of mouse organ: Tumor (PIP),PSMA^+ PC-3 PIP tumors [1]; 270 min after injection,4.05±0.64 % ID/g
same,"excretion, in words",PSMA^+ PC-3 PIP tumors [1]; MicroPET/CT,rapidly excreted through the kidney and bladder; also recorded: rapidly excreted out of the body
same,Radioactivity in mouse organ: Blood,PSMA^+ PC-3 PIP tumors [2],0.01 ± 0.00 % ID/g
same,Radioactivity in mouse organ: Bone,PSMA^+ PC-3 PIP tumors [2],0.00 ± 0.00 % ID/g
same,Radioactivity in mouse organ: Fat,PSMA^+ PC-3 PIP tumors [2],0.01 ± 0.00 % ID/g
same,Radioactivity in mouse organ: Heart,PSMA^+ PC-3 PIP tumors [2],0.01 ± 0.00 % ID/g
same,Radioactivity in mouse organ: Intestine,PSMA^+ PC-3 PIP tumors [2],0.09 ± 0.08 % ID/g
same,Radioactivity in mouse organ: Kidney,PSMA^+ PC-3 PIP tumors [2],0.82 ± 0.51 % ID/g
same,Radioactivity in mouse organ: Liver,PSMA^+ PC-3 PIP tumors [2],0.02 ± 0.01 % ID/g
same,Radioactivity in mouse organ: Lung,PSMA^+ PC-3 PIP tumors [2],0.02 ± 0.01 % ID/g
same,Radioactivity in mouse organ: Muscle,PSMA^+ PC-3 PIP tumors [2],0.01 ± 0.00 % ID/g
same,Radioactivity in mouse organ: PSMA + PIP (tumor intake rate),PSMA^+ PC-3 PIP tumors [2],7.34 ± 5.49 % ID/g
same,Radioactivity in mouse organ: Spleen,PSMA^+ PC-3 PIP tumors [2],0.01 ± 0.00 % ID/g
same,Radioactivity in mouse organ: Stomach,PSMA^+ PC-3 PIP tumors [2],0.02 ± 0.02 % ID/g
same,logP,[3],−2.88
